The values that follow come from publication PMC13192270, “RhlR quorum-sensing receptor ligand sensitivity regulates the differential expression of phenazine genes in Pseudomonas aeruginosa” (Journal of Bacteriology, 2026).

The subject of test [1] is pyocyanin production. The note with it: cited from earlier work.
Test [2] deals with T1, RhlR A44W (Pseudomonas aeruginosa, UniProt P54292, A44W).
T1 construct: expressed in transfected cells; host or cells: E. coli carrying pBAD-A-rhlR mutant, pCS26-prhlA-luxCDABE and pACYC-pqsE or empty pACYC
Briefly: E. coli prhlA-luxCDABE luciferase reporter assay. Format: cell-based. The following applies: even at the highest dose of C4HSL tested. The source says:
Previous analysis of the RhlR LBP focused on highly conserved residues that were known from other AHL-binding proteins to be important contacts for AHL molecules, particularly the lactone head group. We performed conservation analyses on 300 LuxR-type receptors to determine variable and moderately conserved residues in the LBP (Fig. 1B) and, in conjunction with our previously determined experimental structure of WT RhlR bound to the synthetic agonist mBTL, used for docking C4- and C6HSL. Based on our docking simulations, C4- and C6HSL occupy a similar position in the LBP as mBTL, a highly efficacious activator of RhlR (Fig. 1C; Fig. S1). We targeted residues A44, G46, T58, L69, Y72, D81, I84, W96, and W108 (Fig. 1B and C). These residues were selected because of their proximity to the acyl tail of C4HSL, as well as the differences in conservation that are observed at these sites. […] Transcription was monitored by light production via the expression of the luxCDABE operon controlled by the RhlR-dependent promoter of rhlA. […]
The range of responses to substitutions is best highlighted by changes at residue T58 (Fig. 2A). […] Indeed, of the LuxR-AHL experimentally determined structures, this region of the LBP is typically occupied by the acyl tail of long-chain AHLs or a hydrophobic residue ([5], [27], [29], [30], [42], [43]), a point we return to in the discussion. […]
A general note: Reporter assays use an easily measured gene product as a stand-in for the process of interest.

In test [3] the target is T2, RhlR (A44M) (Pseudomonas aeruginosa, UniProt P54292, A44M).
T2 construct: expressed in transfected cells; host or cells: E. coli carrying pBAD-A-rhlR mutant, pCS26-prhlA-luxCDABE and pACYC-pqsE or empty pACYC
Briefly: E. coli prhlA-luxCDABE luciferase reporter assay. The following applies: even at the highest dose of C4HSL tested. Type of test: cell-based. The source says: (§1) Previous analysis of the RhlR LBP focused on highly conserved residues that were known from other AHL-binding proteins to be important contacts for AHL molecules, particularly the lactone head group. We performed conservation analyses on 300 LuxR-type receptors to determine variable and moderately conserved residues in the LBP (Fig. 1B) and, in conjunction with our previously determined experimental structure of WT RhlR bound to the synthetic agonist mBTL, used for docking C4- and C6HSL. Based on our docking simulations, C4- and C6HSL occupy a similar position in the LBP as mBTL, a highly efficacious activator of RhlR (Fig. 1C; Fig. S1). We targeted residues A44, G46, T58, L69, Y72, D81, I84, W96, and W108 (Fig. 1B and C). These residues were selected because of their proximity to the acyl tail of C4HSL, as well as the differences in conservation that are observed at these sites. We used an E. coli luciferase reporter assay to monitor ligand-dependent activation of WT RhlR and RhlR variants. WT RhlR and RhlR variants were expressed under the control of an arabinose-inducible promoter (Fig. S2). Transcription was monitored by light production via the expression of the luxCDABE operon controlled by the RhlR-dependent promoter of rhlA. Binding of RhlR to the rhlA promoter is highly dependent on the C4HSL-RhlR interaction, based on ChIP-seq analyses performed in P. aeruginosa as well as previously published E. coli reporter systems ([34], [39]). After expressing WT RhlR and RhlR variants in the E. coli reporter system, we performed dose response assays using C4HSL to calculate the concentration of C4HSL required to activate the reporter system to 50% maximum levels (EC50 value; Table 1). As expected, transcription activation by WT RhlR increased with increased C4HSL levels, with an EC50 value of ~2 µM. We observed a range of responses. Figure 1C depicts the targeted residues, which are colored based on the effect of amino acid substitution.
(§2) RhlR requires the accessory-binding protein, PqsE, for maximal activity. To determine if PqsE expression altered the activation of RhlR variants, we assessed AHL-dependent RhlR activation of the prhlA-luxCDABE reporter in the presence of a third plasmid that constitutively expresses PqsE in E. coli. […] RhlR variants that were still active but with increased EC50 values for C4HSL could have their activity enhanced by PqsE. […] Thus, alterations to the LBP can diminish the additive effect of PqsE-dependent transcription, indicating a potential role of allosteric conformational changes dependent on ligand occupancy. […] RhlR variants at residues I84 and W108 could not be activated by C4HSL, and thus, light levels remained low at all concentrations that were tested. Unlike the aforementioned variants, RhlR I84M/W and RhlR W108F/Y were activated by the expression of PqsE (Fig. S4).
(§3) All E. coli strains in this study were grown overnight with shaking in 5 mL Luria-Bertani (LB) media supplemented with 100 µg/mL ampicillin, 50 µg/mL kanamycin, and 15 µg/mL tetracycline at 37°C overnight. Overnight cultures were diluted 1:100 into fresh media, grown at 37°C with shaking for 2 h until reaching OD600 = 0.4. Cultures were induced with a final concentration of 0.1% arabinose, and 198 μL of the induced culture was mixed with 2 μL of C4HSL dilutions in a clear-bottom, black-opaque 96-well plate (Corning) and grown at 37°C with shaking for 4 h. The C4HSL dilution series was performed 1:1 in dimethyl sulfoxide (DMSO) with a top final concentration of 10 μM. Luminescence and optical density were recorded using a Glomax (Promega) plate reader.

Test [4] concerns the target T3, RhlR (G46M) (Pseudomonas aeruginosa, UniProt P54292, G46M).
T3 construct: expressed in transfected cells; host or cells: E. coli carrying pBAD-A-rhlR mutant, pCS26-prhlA-luxCDABE and pACYC-pqsE or empty pACYC
The test is described as follows: E. coli prhlA-luxCDABE luciferase reporter assay. Format: cell-based.
Excerpt: as §1, §2, §3

The target of test [5] is T4, RhlR (L69K) (Pseudomonas aeruginosa, UniProt P54292, L69K).
T4 construct: expressed in transfected cells; host or cells: E. coli carrying pBAD-A-rhlR mutant, pCS26-prhlA-luxCDABE and pACYC-pqsE or empty pACYC
Briefly: E. coli prhlA-luxCDABE luciferase reporter assay. The note with it: pqsE co-expressed. Type of test: cell-based.
Excerpt: as §1, §2, §3

The target of test [6] is T5, RhlR (I84W) (Pseudomonas aeruginosa, UniProt P54292, I84W).
T5 construct: expressed in transfected cells; host or cells: E. coli carrying pBAD-A-rhlR mutant, pCS26-prhlA-luxCDABE and pACYC-pqsE or empty pACYC
Briefly: E. coli prhlA-luxCDABE luciferase reporter assay. The following applies: pqsE co-expressed. Type of test: cell-based.
Excerpt: as §1, §2, §3

For test [7], the target named is T6, RhlR (T58V) (Pseudomonas aeruginosa, UniProt P54292, T58V).
T6 construct: expressed in transfected cells; host or cells: E. coli carrying pBAD-A-rhlR mutant, pCS26-prhlA-luxCDABE and pACYC-pqsE or empty pACYC
T6 sequence (P54292 1-241 T58V): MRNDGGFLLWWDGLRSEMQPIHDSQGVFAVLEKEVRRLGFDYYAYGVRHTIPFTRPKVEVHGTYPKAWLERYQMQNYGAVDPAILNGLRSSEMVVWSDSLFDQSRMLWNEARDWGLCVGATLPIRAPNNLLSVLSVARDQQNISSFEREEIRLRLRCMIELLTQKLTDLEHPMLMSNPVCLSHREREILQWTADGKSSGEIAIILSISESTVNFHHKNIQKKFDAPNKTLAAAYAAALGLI
The test is described as follows: E. coli prhlA-luxCDABE luciferase reporter assay. Format: cell-based.
Excerpt: as §1, §2, §3

The target of test [8] is T7, RhlR (I84M) (Pseudomonas aeruginosa, UniProt P54292, I84M).
T7 construct: expressed in transfected cells; host or cells: E. coli carrying pBAD-A-rhlR mutant, pCS26-prhlA-luxCDABE and pACYC-pqsE or empty pACYC
Briefly: E. coli prhlA-luxCDABE luciferase reporter assay. Format: cell-based. The note with it: pqsE co-expressed.
Excerpt: as §1, §2, §3

As usually defined, the EC50 is the concentration that produces a half-maximal response. For `CCCC(=O)N[C@H]1CCOC1=O` [C4HSL, N-butyryl-L-homoserine lactone], the “C4HSL concentration above which pyocyanin production is lost” value in test [1] is above 5 µM. Further, the “C4HSL concentration below which pyocyanin production is lost” value in test [1] was below 500 nM. In addition, the “activation by C4HSL in the reporter system” value in test [2], in test [3] and in test [4] (even at the highest dose of C4HSL tested) was “not activated” in each case. Further, the concentration for a half-maximal effect (EC50) in test [4] (pqsE co-expressed) came out at 32.7 µM; in test [5], 13.2 µM; in test [6], 5.2 µM; in test [7] (Vector (no pqsE)), 0.66 µM; in test [7] (pqsE co-expressed), 0.148 µM; in test [8], 3.68 µM.
